Assay results reported in PMC9683399 (Journal of medicinal chemistry, 2022).

Target: BRD4 D2 (Homo sapiens, UniProt O60885)

Cc1sc2c(c1C)C(c1ccc(Cl)cc1)=N[C@@H](CC(=O)OC(C)(C)C)c1nnc(C)n1-2 [(+)-JQ1]
binding to BRD4 D2 by ITC: potent binding
